# Test results: publication PMC7699381, “Rare-Earth Metal Complexes of the Antibacterial Drug Oxolinic Acid: Synthesis, Characterization, DNA/Protein Binding and Cytotoxicity Studies” (Molecules, 2020)
# Target: T1, Human serum albumin (HSA) (Homo sapiens, UniProt P02768)
# Experiment: Fluorescence quenching of human serum albumin
# Conditions: 298 K
# T1 sequence (P02768 25-609): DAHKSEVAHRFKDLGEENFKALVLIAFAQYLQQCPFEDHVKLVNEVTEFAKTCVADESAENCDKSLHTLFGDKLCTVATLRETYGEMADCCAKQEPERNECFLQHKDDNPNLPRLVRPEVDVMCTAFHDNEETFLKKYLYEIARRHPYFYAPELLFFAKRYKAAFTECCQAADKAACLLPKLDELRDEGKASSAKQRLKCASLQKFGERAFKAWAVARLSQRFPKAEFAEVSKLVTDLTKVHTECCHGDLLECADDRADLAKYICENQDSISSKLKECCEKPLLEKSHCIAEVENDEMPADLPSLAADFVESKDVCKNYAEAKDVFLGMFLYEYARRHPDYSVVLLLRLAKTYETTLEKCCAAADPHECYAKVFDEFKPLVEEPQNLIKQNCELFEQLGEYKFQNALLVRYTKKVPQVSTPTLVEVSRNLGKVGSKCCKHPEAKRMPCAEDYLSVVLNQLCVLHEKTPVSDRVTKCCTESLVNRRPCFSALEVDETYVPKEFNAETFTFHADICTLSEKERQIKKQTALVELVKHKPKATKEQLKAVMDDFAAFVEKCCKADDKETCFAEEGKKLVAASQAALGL
SMILES,"Ka (association binding constant), HSA","n (Hill Coefficient), HSA","n (Number of Binding Sites), HSA"
"CCn1cc(C(=O)[O][Y]([OH])[O]C(=O)c2cn(CC)c3cc4c(cc3c2=O)OCO4)c(=O)c2cc3c(cc21)OCO3.O [Y oxo, [Y(oxo)(OH)(H2O)]]",(2.04 ± 0.74) × 10^5 M^−1,1.52 ± 0.47,1.44 ± 0.03

# Same assay, conditions: 298 K, 2.5 µM HSA, 0–8 µM compound, pH 7.4
row,SMILES,"Ksv (Stern-Volmer constant), HSA"
1,"CCn1cc(C(=O)[O][Y]([OH])[O]C(=O)c2cn(CC)c3cc4c(cc3c2=O)OCO4)c(=O)c2cc3c(cc21)OCO3.O [Y oxo, [Y(oxo)(OH)(H2O)]]",(10.53 ± 0.95) × 10^4 M^−1

# Same assay, conditions: 298 K, from KSV = Kq τ0
row,SMILES,"Kq (bimolecular quenching constant), HSA [M⁻¹ s⁻¹]"
1,"CCn1cc(C(=O)[O][Y]([OH])[O]C(=O)c2cn(CC)c3cc4c(cc3c2=O)OCO4)c(=O)c2cc3c(cc21)OCO3.O [Y oxo, [Y(oxo)(OH)(H2O)]]",1.053e+13

# Same assay, conditions: 298 K, modified Stern-Volmer
row,SMILES,"fa (fraction of fluorophore accessible to the quencher), HSA"
1,"CCn1cc(C(=O)[O][Y]([OH])[O]C(=O)c2cn(CC)c3cc4c(cc3c2=O)OCO4)c(=O)c2cc3c(cc21)OCO3.O [Y oxo, [Y(oxo)(OH)(H2O)]]",1.07 ± 0.05

# System: MDA-MB 231 (human breast adenocarcinoma)
# Experiment: MTS cytotoxicity assay, MDA-MB 231 cells
# Assay type: cell-based
# Conditions: 48 h of incubation
# Experimental: (§1) For the evaluation of the cytotoxic effects of the complexes and ligand two human cancer cell lines were used, namely MDA-MB 231 (human breast adenocarcinoma) and LoVo (human colon adenocarcinoma); a normal cell line, human umbilical vein endothelial cells (HUVEC), was used as a reference. […] After 24 h and 48 h, respectively, cell viability was evaluated through MTS assay (data shown in Figures S16–S18) and the IC50 values were calculated (Table 5). The cytotoxicity assay is based on the ability of metabolically active cells to reduce MTS, a yellow tetrazolium salt, to the colored formazan, soluble in the culture medium; the concentration of formazan can be spectrophotometrically determined. […] PES is a cationic dye with high chemical stability that binds to MTS and forms a stable solution. […] The reduced MTS to formazan was spectrophotometrically measured at λ = 492 nm. The test was run on two cancer cell lines, LoVo and MDA-MB 231, and on a normal cell line, HUVEC. […] Cell viability data were obtained in triplicate (n = 3) and expressed as mean values ± standard deviations (SD). […] All assays were performed in 96-well microtiter plates with flat bottom (Falcon), using CellTiter 96 Aqueous One Solution Cell Proliferation Assay (Promega), an MTS-based colorimetric assay. The formazan was spectrophotometrically measured using the Tecan GENios Spectrophotometer.
row,SMILES,IC50 [µM]
1,"CCn1cc(C(=O)[O][Y]([OH])[O]C(=O)c2cn(CC)c3cc4c(cc3c2=O)OCO4)c(=O)c2cc3c(cc21)OCO3.O [Y oxo, [Y(oxo)(OH)(H2O)]]",33.2 ± 14.9

# System: EB-DNA system (CT-DNA)
# Experiment: Competitive binding assay with ethidium bromide (EB) through fluorescence spectroscopy
# Set-up: species or system calf
# Conditions: 10 µM CT-DNA, 2 µM EB, 0–40 µM compound, λex 500 nm
# From the text: The manner of binding to the DNA macromolecule can be investigated through competitive binding studies with ethidium bromide (3,8-diamino-5-ethyl-6-phenylphenanthridinium bromide), a fluorescent dye; due to its aromatic ring, it can intercalate between two adjacent base pairs in the DNA structure and form a complex which emits fluorescent light; displacing EB results in a quenching effect. The Stern-Volmer constant (KSV) and the dissociation constant (K50) have been calculated from the resulting data.
# Competitive binding studies were carried out on a Jasco FP 6500 fluorometer at room temperature, using quartz cells of 1 cm path-length. The fluorescence spectra were recorded on 1.6 mL samples containing 10 µM CT-DNA and 2 µM EB in the absence and presence of increasing amounts (0–40 µM with an increment of 5 µM) of complexes and free ligands, respectively, after being kept in contact for 10 min at room temperature, under continuous stirring and in the dark. The excitation wavelength used was 500 nm and the spectra was recorded in the 520–800 nm range. Two control samples were used, the first one containing DMSO, DNA and EB and the second one just the complex.
# Data from the assay can be interpreted using the classical Stern-Volmer equation (Equation (3)):(3) F0/F=1+ KSV·[Q] where F0 and F are the fluorescence intensities of the EB-DNA samples in the absence and presence of the tested compounds and [Q] is the concentration of the compound; KSV is the Stern-Volmer constant and can be calculated from the plot of F0/F vs. [Q] as the slope.
# The ratio of binding relative to the control sample exposed only to DMSO was plotted against the logarithm of concentration. The data points were fitted using the modified Hill function with offset (Origin®) (Equation (4)):(4) y=A1+(A2−A1)×x^n/K50^n+x^n where y is the ratio of binding (F/F0) and x is the concentration, A1 is the minimum of y values, A2 is the maximum of y values, K50 is the concentration corresponding to 50% binding and n is the Hill coefficient.
row,SMILES,"Ksv (Stern-Volmer quenching constant, EB-DNA system)"
1,"CCn1cc(C(=O)[O][Y]([OH])[O]C(=O)c2cn(CC)c3cc4c(cc3c2=O)OCO4)c(=O)c2cc3c(cc21)OCO3.O [Y oxo, [Y(oxo)(OH)(H2O)]]",8.38 (±0.29) × 10^3

# Same assay, conditions: 10 µM CT-DNA, 2 µM EB, 0–40 µM compound, λex 500 nm; listed as Y-oxo
row,SMILES,"Ksv (Stern-Volmer quenching constant, EB-DNA system)"
1,"CCn1cc(C(=O)[O][Y]([OH])[O]C(=O)c2cn(CC)c3cc4c(cc3c2=O)OCO4)c(=O)c2cc3c(cc21)OCO3.O [Y oxo, [Y(oxo)(OH)(H2O)]]",(8.38 ± 0.29) × 10^3

# Same assay, conditions: concentration corresponding to 50% binding; 10 µM CT-DNA, 2 µM EB
row,SMILES,K50 (EB Displacement Assay) [µM]
1,"CCn1cc(C(=O)[O][Y]([OH])[O]C(=O)c2cn(CC)c3cc4c(cc3c2=O)OCO4)c(=O)c2cc3c(cc21)OCO3.O [Y oxo, [Y(oxo)(OH)(H2O)]]",28.07 ± 4.44

# System: LoVo (human colon adenocarcinoma)
# Experiment: MTS cytotoxicity assay, LoVo cells
# Assay type: cell-based
# Conditions: 48 h of incubation
# Experimental: as §1
row,SMILES,IC50 [µM]
1,"CCn1cc(C(=O)[O][Y]([OH])[O]C(=O)c2cn(CC)c3cc4c(cc3c2=O)OCO4)c(=O)c2cc3c(cc21)OCO3.O [Y oxo, [Y(oxo)(OH)(H2O)]]",90.4 ± 9.3

# System: HUVEC (normal human umbilical vein endothelial cells)
# Experiment: MTS cytotoxicity assay, HUVEC normal cells
# Assay type: cell-based
# Conditions: 48 h of incubation
# Experimental: as §1
row,SMILES,IC50 [µM]
1,"CCn1cc(C(=O)[O][Y]([OH])[O]C(=O)c2cn(CC)c3cc4c(cc3c2=O)OCO4)c(=O)c2cc3c(cc21)OCO3.O [Y oxo, [Y(oxo)(OH)(H2O)]]",> 200

# Target: T1, Human serum albumin (HSA)
# Experiment: not given
# Conditions: not given
row,SMILES,Kd [µM]
1,"CCn1cc(C(=O)[O][Y]([OH])[O]C(=O)c2cn(CC)c3cc4c(cc3c2=O)OCO4)c(=O)c2cc3c(cc21)OCO3.O [Y oxo, [Y(oxo)(OH)(H2O)]]",6.3 ± 2.47

# Target: T2, Apo-transferrin (apo-Tf) (Homo sapiens, UniProt P02787)
# T2 construct: purchased Sigma Aldrich Chemical Co. (Schnelldorf, Germany)
# Experiment: Fluorescence quenching of apo-transferrin
# Assay type: binding
# Conditions: 1 µM apo-Tf, compound up to 8 µM, λex 295 nm
# T2 sequence (P02787 20-698): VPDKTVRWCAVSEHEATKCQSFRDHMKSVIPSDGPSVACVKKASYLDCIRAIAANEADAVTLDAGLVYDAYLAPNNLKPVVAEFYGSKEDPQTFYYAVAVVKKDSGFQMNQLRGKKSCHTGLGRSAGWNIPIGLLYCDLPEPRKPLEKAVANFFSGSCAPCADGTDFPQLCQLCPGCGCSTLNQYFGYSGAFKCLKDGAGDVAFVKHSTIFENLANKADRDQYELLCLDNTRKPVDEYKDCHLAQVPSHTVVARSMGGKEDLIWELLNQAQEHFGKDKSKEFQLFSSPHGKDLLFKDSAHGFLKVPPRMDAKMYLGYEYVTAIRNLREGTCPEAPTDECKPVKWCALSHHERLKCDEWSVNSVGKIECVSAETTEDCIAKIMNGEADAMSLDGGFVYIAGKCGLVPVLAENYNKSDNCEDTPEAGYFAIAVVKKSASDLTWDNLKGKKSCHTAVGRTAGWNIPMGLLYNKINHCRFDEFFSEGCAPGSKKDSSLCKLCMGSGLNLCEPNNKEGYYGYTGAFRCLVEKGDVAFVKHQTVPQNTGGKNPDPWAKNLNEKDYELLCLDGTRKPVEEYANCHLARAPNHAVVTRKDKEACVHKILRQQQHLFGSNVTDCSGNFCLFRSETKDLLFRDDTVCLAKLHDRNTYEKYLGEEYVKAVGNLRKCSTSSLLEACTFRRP
row,SMILES,quenching effect on apo-Tf fluorescence peak [%]
1,"CCn1cc(C(=O)[O][Y]([OH])[O]C(=O)c2cn(CC)c3cc4c(cc3c2=O)OCO4)c(=O)c2cc3c(cc21)OCO3.O [Y oxo, [Y(oxo)(OH)(H2O)]]",35

# Same assay, conditions: 298 K
SMILES,"Ka (association binding constant), apo-Tf","n (Hill Coefficient), apo-Tf","n (Number of Binding Sites), apo-Tf"
"CCn1cc(C(=O)[O][Y]([OH])[O]C(=O)c2cn(CC)c3cc4c(cc3c2=O)OCO4)c(=O)c2cc3c(cc21)OCO3.O [Y oxo, [Y(oxo)(OH)(H2O)]]",4.40(±1.09) × 10^4 M^−1,1.58 ± 0.23,0.94 ± 0.01

# Same assay, conditions: 298 K, 1 µM apo-Tf, 0–8 µM compound, pH 7.4
row,SMILES,"Ksv (Stern-Volmer constant), apo-Tf"
1,"CCn1cc(C(=O)[O][Y]([OH])[O]C(=O)c2cn(CC)c3cc4c(cc3c2=O)OCO4)c(=O)c2cc3c(cc21)OCO3.O [Y oxo, [Y(oxo)(OH)(H2O)]]",6.52 (± 0.56) × 10^4 M^−1

# Same assay, conditions: 298 K, 1 µM apo-Tf, 0–8 µM compound, pH 7.4; listed as Y-oxo
row,SMILES,"Ksv (Stern-Volmer constant), apo-Tf"
1,"CCn1cc(C(=O)[O][Y]([OH])[O]C(=O)c2cn(CC)c3cc4c(cc3c2=O)OCO4)c(=O)c2cc3c(cc21)OCO3.O [Y oxo, [Y(oxo)(OH)(H2O)]]",(6.52 ± 0.56) × 10^4 M^−1

# Same assay, conditions: 298 K, from KSV = Kq τ0
row,SMILES,"Kq (bimolecular quenching constant), apo-Tf [M⁻¹ s⁻¹]"
1,"CCn1cc(C(=O)[O][Y]([OH])[O]C(=O)c2cn(CC)c3cc4c(cc3c2=O)OCO4)c(=O)c2cc3c(cc21)OCO3.O [Y oxo, [Y(oxo)(OH)(H2O)]]",6.52e+12

# Same assay, conditions: 298 K, modified Stern-Volmer
row,SMILES,"fa (fraction of fluorophore accessible to the quencher), apo-Tf"
1,"CCn1cc(C(=O)[O][Y]([OH])[O]C(=O)c2cn(CC)c3cc4c(cc3c2=O)OCO4)c(=O)c2cc3c(cc21)OCO3.O [Y oxo, [Y(oxo)(OH)(H2O)]]",1.15 ± 0.07

# Same assay, conditions: 298 K; listed as Y-oxo
row,SMILES,"Ka (association binding constant), apo-Tf"
1,"CCn1cc(C(=O)[O][Y]([OH])[O]C(=O)c2cn(CC)c3cc4c(cc3c2=O)OCO4)c(=O)c2cc3c(cc21)OCO3.O [Y oxo, [Y(oxo)(OH)(H2O)]]",(4.40 ± 1.09) × 10^4 M^−1

# Same assay, conditions: 298 K; read-out: Kd, apo-Tf
row,SMILES,Kd [µM]
1,"CCn1cc(C(=O)[O][Y]([OH])[O]C(=O)c2cn(CC)c3cc4c(cc3c2=O)OCO4)c(=O)c2cc3c(cc21)OCO3.O [Y oxo, [Y(oxo)(OH)(H2O)]]",8.34 ± 1.71
